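Assay format: 96-well plates, 48-hour exposure. GI50 is the concentration that inhibits growth by half.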 Calls of active or inactive are those of the source. Cut-off read from the data, not from the text of the source: active = GI50 up to about 1.1 µM and inactive = higher.

Test systems include RPMI-8226; MDA-MB-231; OVCAR-3; T47D; BT-549; M14; CAKI-1; MOLT-4; MDA-N; SK-MEL-5; PC-3; SR; SNB-75; HCC 2998.
Common to all, as to assay: inhibition of tumour cell growth, NCI panel, 48 h

Consider `Cc1nnc2nc(-c3ccc(Cl)cc3Cl)cc(-c3ccc(Cl)cc3)n12`, for which the GI50 was 35.6 µM (inactive) with RPMI-8226; 47.5 µM (inactive) in the assay with MDA-MB-231; 50.1 µM (inactive) with OVCAR-3; 89.1 µM (inactive) in the assay on T47D; > 100 µM (inactive) with BT-549; > 100 µM (inactive) in the assay on M14. Also, the GI50 in the assay with CAKI-1 is 66.5 µM (inactive); in the assay on MOLT-4, 15.5 µM (inactive); in the assay with MDA-N it was > 100 µM (inactive); in the assay on SK-MEL-5, 68.5 µM (inactive); in the assay with PC-3, 57.8 µM (inactive); in the assay on SR it was > 100 µM (inactive).
On to `C/C(=N/NC(=S)Nc1ccc([N+](=O)[O-])cc1)c1cccc(/C(C)=N\NC(=S)Nc2ccc([N+](=O)[O-])cc2)n1`, for which the GI50 in the assay with RPMI-8226 was 0.491 µM (active); in the assay on MDA-MB-231, 0.56 µM (active); in the assay on OVCAR-3, 0.0867 µM (active); in the assay on T47D it was 2.16 µM (inactive); with BT-549 it was 0.463 µM (active); in the assay on SNB-75, 3.3 µM (inactive). For the same compound, the GI50 is 0.321 µM (active) in the assay with M14; 0.631 µM (active) in the assay on CAKI-1; 0.308 µM (active) with MOLT-4; 2.35 µM (inactive) in the assay with MDA-N; 1.02 µM (active) with HCC 2998; 0.353 µM (active) with SK-MEL-5. For the same compound, the GI50 in the assay on PC-3 was 0.6 µM (active); in the assay on SR, 0.216 µM (active).
Take `N#C/C(=C1/c2cc([N+](=O)[O-])ccc2-c2c1cc([N+](=O)[O-])cc2[N+](=O)[O-])N1CCCCC1`: the GI50 in the assay on RPMI-8226 is 17 µM (inactive); in the assay with MDA-MB-231, > 100 µM (inactive); with OVCAR-3, > 100 µM (inactive); in the assay on T47D, > 100 µM (inactive); in the assay with BT-549, > 100 µM (inactive); in the assay with SNB-75, 16.9 µM (inactive). Besides, the GI50 with M14 is 86.9 µM (inactive); in the assay on CAKI-1 it was > 100 µM (inactive); in the assay on MOLT-4, > 100 µM (inactive); in the assay with MDA-N it was > 100 µM (inactive); in the assay on HCC 2998 it was > 100 µM (inactive); in the assay with SK-MEL-5, 91.4 µM (inactive). In addition, the GI50 in the assay on PC-3 was > 100 µM (inactive); in the assay with SR, 1.34 µM (inactive).
Consider `COC(=O)CNS(=O)(=O)c1ccc(-c2c3nc(c(-c4ccc(S(=O)(=O)NCC(=O)OC)cc4)c4ccc([nH]4)c(-c4ccc(S(=O)(=O)NCC(=O)OC)cc4)c4nc(c(-c5ccc(S(=O)(=O)NCC(=O)OC)cc5)c5ccc2[nH]5)C=C4)C=C3)cc1`, for which the GI50 is > 100 µM (inactive) in the assay with RPMI-8226; 42.2 µM (inactive) in the assay with MDA-MB-231; > 100 µM (inactive) in the assay with OVCAR-3; > 100 µM (inactive) with T47D; > 100 µM (inactive) with BT-549; > 100 µM (inactive) in the assay with SNB-75. The GI50 in the assay with M14 is 18.7 µM (inactive); with CAKI-1, > 100 µM (inactive); with MOLT-4, > 100 µM (inactive); in the assay on MDA-N, > 100 µM (inactive); in the assay on HCC 2998, > 100 µM (inactive); in the assay on SK-MEL-5 it was > 100 µM (inactive). For the same compound, the GI50 with PC-3 and in the assay on SR was > 100 µM (inactive) each time.
`COC(=O)C(=O)Nc1cc2c3c(c1)Oc1cccc4c1C3(C)c1c(cccc1O2)O4`: the GI50 was > 44.8 µM (inactive) in the assay on RPMI-8226; > 100 µM (inactive) with MDA-MB-231; 34.2 µM (inactive) with OVCAR-3; > 61.7 µM (inactive) with T47D; > 100 µM (inactive) in the assay with BT-549; > 100 µM (inactive) in the assay with SNB-75. In addition, the GI50 in the assay on M14 was > 100 µM (inactive); in the assay on CAKI-1, > 72.4 µM (inactive); with MOLT-4, 39.2 µM (inactive); in the assay on MDA-N, > 100 µM (inactive); with HCC 2998, > 59.2 µM (inactive); in the assay on SK-MEL-5, > 100 µM (inactive). Besides, the GI50 was 97.1 µM (inactive) in the assay with PC-3 and 2.93 µM (inactive) in the assay on SR.
With `COc1ccc(C(SCCO)(c2ccccc2)c2ccc(OC)cc2)cc1`, the GI50 in the assay with RPMI-8226 was 24.9 µM (inactive); in the assay on MDA-MB-231 it was 9.64 µM (inactive); in the assay on OVCAR-3, 16.3 µM (inactive); in the assay with T47D, 11.9 µM (inactive); in the assay on BT-549 it was 19.5 µM (inactive); with SNB-75, 4.58 µM (inactive). Moreover, the GI50 with M14 was 9.31 µM (inactive); in the assay with CAKI-1 it was 21 µM (inactive); in the assay on MOLT-4 it was 12.4 µM (inactive); in the assay with MDA-N it was 5.32 µM (inactive); with HCC 2998 it was 5.4 µM (inactive); in the assay with SK-MEL-5, 8 µM (inactive). Also, in the assay with PC-3, the GI50 is 14.5 µM (inactive).
As to `c1ccc(SC(Sc2ccccc2)c2ccc3c(c2)OCO3)cc1`, the GI50 in the assay on MDA-MB-231 was > 100 µM (inactive); with OVCAR-3, 60.3 µM (inactive); with T47D, > 100 µM (inactive); with BT-549, > 100 µM (inactive); in the assay on M14, > 100 µM (inactive); in the assay with CAKI-1, > 100 µM (inactive). In addition, the GI50 in the assay with MOLT-4 is 38.1 µM (inactive); in the assay with MDA-N, 88.9 µM (inactive); with SK-MEL-5, > 100 µM (inactive); in the assay with PC-3, > 100 µM (inactive); in the assay with SR it was > 100 µM (inactive).
In the case of `Cc1nc2ccc(F)cc2c2c1CCO2`, the GI50 was 80 µM (inactive) with RPMI-8226; 20.1 µM (inactive) with MDA-MB-231; 52.6 µM (inactive) in the assay on T47D; 80 µM (inactive) in the assay on BT-549; > 100 µM (inactive) in the assay on SNB-75; 99.1 µM (inactive) in the assay on M14. The GI50 with CAKI-1 is 15.2 µM (inactive); in the assay on MOLT-4, > 100 µM (inactive); in the assay on MDA-N it was 27.7 µM (inactive); in the assay on HCC 2998, 79.1 µM (inactive); with SK-MEL-5, 43.5 µM (inactive); in the assay on SR, > 100 µM (inactive).
In the case of `CC(NO)/C(=N/O)c1ccco1` (stereo not drawn), the GI50 in the assay with RPMI-8226, in the assay on MDA-MB-231, with OVCAR-3, in the assay on T47D, in the assay on BT-549 and with M14 was > 10 µM (inactive) each time. The GI50 with CAKI-1, in the assay with MOLT-4, with MDA-N, in the assay on HCC 2998, in the assay on PC-3 and with SR was > 10 µM (inactive) throughout.
`O=C1/C(=C\c2cccc(Oc3ccccc3)c2)SC(c2ccccc2)N1c1cc(Cl)ccc1Cl` (stereo not drawn): the GI50 in the assay on RPMI-8226 was 37 µM (inactive); in the assay with MDA-MB-231 it was 32.4 µM (inactive); with OVCAR-3 it was 24.8 µM (inactive); in the assay on T47D it was 28.4 µM (inactive); in the assay on BT-549 it was 36.8 µM (inactive); in the assay with SNB-75 it was > 100 µM (inactive). The GI50 in the assay with M14 is 30.1 µM (inactive); in the assay with CAKI-1, 69.2 µM (inactive); in the assay on MOLT-4, 10.4 µM (inactive); in the assay on MDA-N it was 18.4 µM (inactive); in the assay with HCC 2998, 37.2 µM (inactive); with SK-MEL-5, 27 µM (inactive). Also, the GI50 in the assay on PC-3 was 52.4 µM (inactive).
`COc1cc(OC)cc(Oc2nc3ccc(C(F)(F)F)cc3nc2-c2ccccc2)c1`: the GI50 with RPMI-8226 is 52.5 µM (inactive); in the assay on MDA-MB-231, > 100 µM (inactive); in the assay with OVCAR-3, > 100 µM (inactive); with T47D, 28.4 µM (inactive); with BT-549 it was > 100 µM (inactive); in the assay on SNB-75 it was > 100 µM (inactive). Also, the GI50 in the assay with CAKI-1, in the assay with MOLT-4, in the assay with MDA-N, in the assay with HCC 2998, in the assay with SK-MEL-5 and with PC-3 was > 100 µM (inactive) each time. In the assay on SR, the GI50 is > 100 µM (inactive).
As to `CN(c1ccc(Cl)cc1)S(=O)(=O)c1ccc([N+](=O)[O-])cc1`, the GI50 in the assay with RPMI-8226, in the assay with MDA-MB-231, in the assay on OVCAR-3, in the assay on T47D, with BT-549 and in the assay with SNB-75 was > 100 µM (inactive) throughout. The GI50 was > 100 µM (inactive) in the assay on M14; > 100 µM (inactive) with CAKI-1; > 100 µM (inactive) with MOLT-4; > 100 µM (inactive) with MDA-N; > 100 µM (inactive) with HCC 2998; 26 µM (inactive) with SK-MEL-5. In addition, in the assay with PC-3, the GI50 was > 100 µM (inactive).
As to `COc1cc(C/C=C/c2ccccc2)c(OC)cc1O` [VIOLASTYRENE], the GI50 in the assay on RPMI-8226 is 15.6 µM (inactive); with MDA-MB-231, 15.1 µM (inactive); in the assay with OVCAR-3, 20.1 µM (inactive); with T47D, 17.4 µM (inactive); in the assay with BT-549, 24.7 µM (inactive); with SNB-75, 24.6 µM (inactive). Besides, the GI50 in the assay on M14 was 19.2 µM (inactive); with CAKI-1, 26.2 µM (inactive); in the assay on MOLT-4, 18.6 µM (inactive); in the assay on MDA-N, 17.9 µM (inactive); in the assay on HCC 2998 it was 16.7 µM (inactive); with SK-MEL-5, 23.7 µM (inactive). Moreover, in the assay with PC-3, the GI50 was 21.6 µM (inactive).
`N#CC(C(=O)O)C(c1c(Cl)cccc1Cl)C(C#N)C(=O)O` (stereo not drawn): the GI50 in the assay on RPMI-8226, in the assay on MDA-MB-231, with OVCAR-3, in the assay with T47D, in the assay on BT-549 and in the assay on M14 was > 100 µM (inactive) throughout. Further, the GI50 with CAKI-1, in the assay with MOLT-4, in the assay with MDA-N, with SK-MEL-5, with PC-3 and with SR was > 100 µM (inactive) in each case.
`O=C(CCc1cccc(O)c1)NCCCNC(=O)CCc1cccc(O)c1`: the GI50 in the assay on RPMI-8226, in the assay with MDA-MB-231, with OVCAR-3, with T47D, in the assay on BT-549 and with M14 was > 100 µM (inactive) in each case. Also, the GI50 in the assay on CAKI-1, in the assay with MOLT-4, with MDA-N, with HCC 2998, in the assay on SK-MEL-5 and with PC-3 was > 100 µM (inactive) in each case. In addition, the GI50 in the assay on SR was > 100 µM (inactive).

(Values after ChEMBL document CHEMBL1201862, “PubChem BioAssay data set” (2004).)
